Like-named read-outs stand apart in the source and are kept apart here.
Key:
Format in all cases: cell-based
[1] = Cytotoxicity assay on MRC-5 fibroblasts; conditions: human; for CC50 at 3 day: MRC-5SV2 embryonic lung fibroblasts, Table 1, mean and SEM of two independent experiments, highest concentration 64 μM, read-out: MRC-5 off-target cytotoxicity (CC50); for IC50 at 3 day: MRC-5SV2 human embryonic lung fibroblasts, Table 3, compounds wherein X=N
Description: MRC-5SV2 (Sigma-Aldrich/ECACC, catalogue number 84100401) human embryonic lung fibroblasts were used to perform cytotoxicity assays. The cells were cultured in minimum essential medium (MEM, Life Technologies) with Earle's salt medium, supplemented with L-glutamine, NaHCO3 and 5% inactivated fetal bovine serum (iFBS). Cells were seeded at 1.5×10^4 cells/well and 4-fold compound dilutions were immediately added with a highest in-test concentration of 64 μM. After a 3-day incubation, resazurin (Sigma-Aldrich) was added to each well (final concentration of 10 μg mL^−1), and cell viability was assessed by fluorescent reading (Tecan®, GENios) following 4 h of incubation with resazurin (37° C./5% CO2). The results were expressed as percentage reduction in cell growth/viability compared to control wells and the 50% cytotoxic concentration (CC50) was calculated for each of the compounds.

T. brucei (Squib 427) = assay: In vitro drug susceptibility assay, T. brucei; conditions: Trypanosoma brucei
Description: (§1) Drug susceptibility assays with T. brucei (Squib 427), T. evansi type A (RoTat 1.2) and T. equiperdum (BoTat 1.1) were performed under similar conditions. Parasites were cultured in HMI-9 culture medium supplemented with 10% iFBS. To determine in vitro susceptibility of the abovementioned Trypanosoma species, 10 concentrations of a 4-fold dilution series (with a highest in-test concentration of 64 μM) was prepared for each compound, and parasites were seeded at 1.5×10^4 parasite/well. After 72 h of drug exposure at 37° C. with 5% CO2, resazurin was added to the wells (final concentration of 10 μg mL^−1), followed by another incubation for 24 h. Cell viability was determined by fluorescence reading (Tecan®, GENios) and 50% inhibitory concentration (IC50) was calculated for each compound.

T. vivax (ILRAD700) = assay: Ex vivo drug susceptibility assay, T. vivax; conditions: Trypanosoma vivax
From the text: T. congolense (IL3000), the isometamidium (ISM)-resistant T. congolense strain (MSORO M7H), T. evansi type A (RoTat 1.2), T. evansi type B (KETRI 2479) and T. equiperdum (BoTat 1.1) used for in vitro, ex vivo and in vivo experiments were kindly provided by the Institute of Tropical Medicine (ITM), and T. vivax (ILRAD700) and T. congolense (TC13) used for ex vivo and in vivo experiments, were kindly provided by the University of Brussel (VUB).
Ex Vivo Drug Susceptibility Assays for T. vivax, T. congolense ISM-Resistant, and T. evansi Type B
For Trypanosoma species/strains that were not adapted to culture conditions, donor mice were infected intraperitoneally with 10^4 parasites. Around day 5-6 post infection, blood was collected via cardiac puncture and parasites were isolated using mini-anion exchange centrifugation technique (mAECT). 4-fold dilutions of the test compounds were prepared with the highest concentration of 64 μM, and parasites were seeded at 1×10^5 parasite/well. Following 24 h of drug exposure at 37° C. and 5% CO2, resazurin was added to the wells and plates were incubated (37° C./5% CO2) for another 24 h. Cell viability was determined by fluorescence reading (Tecan®, GENios), and IC50 values were calculated by non-linear regression (dose-response curve with variable slope) using Prism 8.0 (GraphPad Software Inc., San Diego, CA, USA).

T. congolense (IL3000) = assay: In vitro drug susceptibility assay, T. congolense; conditions: Trypanosoma congolense; Table 3; compounds wherein X=N
Description: Drug susceptibility assays for T. congolense (IL3000) were performed with parasites cultured in HMI-9 medium supplemented with 15% horse serum. Parasites were seeded at a concentration of 1.5×10^4 parasite/well and exposed to a 4-fold compound dilution series starting at a highest in-test concentration of 64 μM. Plates were incubated for 72 h at 34° C. and 5% CO2, followed by the addition of resazurin (Sigma, Aldrich) and a further incubation period of 24 h. Cell viability was quantified by fluorescence reading (Tecan®, GENios), and IC50 values were calculated by non-linear regression (dose-response curve with variable slope) using Prism 8.0 (GraphPad Software Inc., San Diego, CA, USA).

[2] = In vitro evaluation on PMM; conditions: mouse, Table 3, compounds wherein X=N
[3] = tested on: T. equiperdum (BoTat 1.1); assay: In vitro drug susceptibility assay, T. equiperdum; conditions: Trypanosoma equiperdum; Table 3; compounds wherein X=N
Description: as §1

T. cruzi = assay: In vitro evaluation against T. cruzi; conditions: Trypanosoma cruzi; Table 3; compounds wherein X=N
[4] = tested on: T. evansi type A (RoTat 1.2); assay: In vitro drug susceptibility assay, T. evansi type A; conditions: Table 3; compounds wherein X=N; type not stated; read-out: IC50 T. evansi
Description: as §1

L. infantum = assay: In vitro evaluation against L. infantum; conditions: Leishmania infantum; Table 3; compounds wherein X=N
[5] = Table 1, mean and SEM of two independent experiments, read-out: T. brucei in vitro activity (IC50)
[6] = Table 1, mean and SEM of two independent experiments, read-out: T. vivax in vitro activity (IC50)
[7] = Table 3, compounds wherein X=N, read-out: IC50 T. brucei
[8] = Table 3, compounds wherein X=N, read-out: IC50 T. vivax

| SMILES | CC50 at 3 day [1] [nM] | IC50 (T. brucei (Squib 427); [5]) [nM] | IC50 (T. vivax (ILRAD700); [6]) [nM] | IC50 (T. congolense (IL3000)) [nM] | IC50 [2] [nM] | IC50 at 3 day [1] [nM] | IC50 (T. brucei (Squib 427); [7]) [nM] | IC50 [3] [nM] | IC50 (T. cruzi) [nM] | IC50 (T. vivax (ILRAD700); [8]) [nM] | IC50 [4] [nM] | IC50 (L. infantum) [nM] |
| --- | --- | --- | --- | --- | --- | --- | --- | --- | --- | --- | --- | --- |
| OC[C@H]1O[C@@H](n2ccc3c(SCC4CCCCC4)ncnc32)[C@H](O)[C@@H]1O [FH15962, 4-S-cyclohexylmethyl-N7-(β-D-ribofuranosyl)pyrrolo[2,3-d]pyrimidine] | 19000 | 31 ± 10 | 2860 ± 260 | – | – | – | – | – | – | – | – | – |
| OC[C@H]1O[C@@H](n2ccc3c(SCCc4ccccc4)ncnc32)[C@H](O)[C@@H]1O [FH15953, 4-S-phenethyl-N7-(β-D-ribofuranosyl)pyrrolo[2,3-d]pyrimidine] | 28900 ± 1340 | 410 ± 10 | 4930 ± 590 | – | – | – | – | – | – | – | – | – |
| CCCCSc1ncnc2c1cnn2[C@@H]1O[C@H](CO)[C@@H](O)[C@H]1O [JB1033, 4-butylthio-1-β-D-ribofuranosyl-1H-pyrazolo[3,4-d]pyrimidine] | > 64000 | 260 ± 10 | 1210 ± 420 | 200 | > 64000 | > 64000 | 110 | 10 | 7460 | 1200 | 60 | 7250 |
| CSc1ncnc2c1cnn2[C@@H]1O[C@H](CO)[C@@H](O)[C@H]1O [JB1031, 4-methylthio-1-β-D-ribofuranosyl-1H-pyrazolo[3,4-d]pyrimidine] | – | – | – | 70 | > 64000 | > 64000 | 540 | 90 | 2150 | 830 | 610 | 10800 |
| OC[C@H]1O[C@@H](n2ccc3c(SCC4CCCC4)ncnc32)[C@H](O)[C@@H]1O [FH15939, 4-cylopentylmethylthio-N7-(β-D-ribofuranosyl)pyrrolo[2,3-d]pyrimidine] | 32300 ± 1000 | 32 ± 21 | 690 ± 250 | – | – | – | – | – | – | – | – | – |
| CCSc1ncnc2c1ccn2[C@@H]1O[C@H](CO)[C@@H](O)[C@H]1O [FH15938, 4-S-ethyl-N7-(β-D-ribofuranosyl)pyrrolo[2,3-d]pyrimidine] | 28200 ± 2030 | 250 ± 50 | 31 ± 9 | – | – | – | – | – | – | – | – | – |
| CCCCCSc1ncnc2c1ccn2[C@@H]1O[C@H](CO)[C@@H](O)[C@H]1O [FH15937, 4—S-pentyl-N7-(β-D-ribofuranosyl)pyrrolo[2,3-d]pyridimidine] | 35300 ± 1000 | 31 ± 1 | 2190 ± 610 | – | – | – | – | – | – | – | – | – |
| CC(C)CSc1ncnc2c1ccn2[C@@H]1O[C@H](CO)[C@@H](O)[C@H]1O [FH15955, 4-S-2-methylpropyl-N7-(β-D-ribofuranosyl)pyrrolo[2,3-d]pyrimidine] | > 64000 | 32 ± 1 | 21 ± 2 | – | – | – | – | – | – | – | – | – |
| OC[C@H]1O[C@@H](n2ccc3c(SCc4ccc(Cl)c(Cl)c4)ncnc32)[C@H](O)[C@@H]1O [FH15934, 4-S-(3,4-dichlorobenzyl)-N7-(β-D-ribofuranosyl)pyrrolo[2,3-d]pyrimidine] | 13900 ± 970 | 85 ± 1 | 8870 ± 90 | – | – | – | – | – | – | – | – | – |
| Cc1ccc(CSc2ncnc3c2ccn3[C@@H]2O[C@H](CO)[C@@H](O)[C@H]2O)cc1 [FH15959, 4-S-(4-methylbenzyl)-N7-(β-D-ribofuranosyl)pyrrolo[2,3-d]pyrimidine] | > 64000 | 31 ± 1 | 18800 ± 650 | – | – | – | – | – | – | – | – | – |
| CC(C)CCSc1ncnc2c1ccn2[C@@H]1O[C@H](CO)[C@@H](O)[C@H]1O [FH15954, 4-S-isopentyl-N7-(β-D-ribofuranosyl)pyrrolo[2,3-d]pyrimidine] | 43200 ± 2630 | 30 ± 4 | 230 ± 20 | – | – | – | – | – | – | – | – | – |
| CCSc1ncnc2c1cnn2[C@@H]1O[C@H](CO)[C@@H](O)[C@H]1O [JB1032, 4-ethylthio-1-β-D-ribofuranosyl-1H-pyrazolo[3,4-d]pyrimidine] | > 64000 | 510 ± 50 | 1360 ± 300 | 290 | > 64000 | > 64000 | 450 | 50 | 5610 | 1420 | 390 | 5040 |

— patent US20250320245A1, “Nucleoside Analogues for the Treatment of Parasitic Infections” (Universiteit Antwerpen, priority 2021, published 2025)
